This note sets out measurements from the SangsterLogP compilation.

The term logD denotes the decadic logarithm of the distribution of all forms, ionised or not, between an organic phase and buffer at a given pH. Higher therefore signals higher lipophilicity.

The nature of the data set: method code SF-AS, from DOI: 10.1111/j.1399-3011.1986.tb03252.x. As to conditions: pH 7.0.
`CC(=O)NC(C)(C)C(N)=O`: the logD is -0.87.

Turning to `C=CCC(NC(C)=O)C(N)=O` (stereo not drawn), the pH-dependent lipophilicity (logD) was -0.86.

Compound `CC(=O)NC(C)C(N)=O` (stereo not drawn) showed a logD of -1.41.

Compound `C=CCC(CC=C)(NC(C)=O)C(N)=O` came in with a logD of 0.05.

Take `CC(=O)NC(Cc1ccccc1)(Cc1ccccc1)C(N)=O`: the logD stood at 2.09.

On to `CCCC(NC(C)=O)C(N)=O` (stereo not drawn), for which the pH-dependent lipophilicity (logD) was -0.45.

For the compound `CC(=O)NCC(N)=O`, the logD was -1.68.

Turning to `CCCC(CCC)(NC(C)=O)C(N)=O`, the log distribution coefficient (logD) amounted to 0.75.
